Tested on: MV-4-11 cells
Experiment: Gene expression microarray analysis (Affymetrix PrimeView) and GSEA
Format: cell-based, human
Design: RFU PODN (11730768_x_at) / Fold change /veh PODN (11730768_x_at) / RFU LINC00158 (11744669_a_at) / Fold change /veh LINC00158 (11744669_a_at) / RFU DUSP10 (11751237_a_at) / Fold change /veh DUSP10 (11751237_a_at) / RFU ID3 (11757404_x_at) / Fold change /veh ID3 (11757404_x_at) / RFU PLEKHG5 (11737974_s_at) / Fold change /veh PLEKHG5 (11737974_s_at) / RFU LRRC4B (11730491_at) / Fold change /veh LRRC4B (11730491_at) / RFU GIMAP4 (11747438_a_at) / Fold change /veh GIMAP4 (11747438_a_at) / RFU KRT8 (11758183_x_at) / Fold change /veh KRT8 (11758183_x_at) / RFU CNN1 (11734310_a_at) / Fold change /veh CNN1 (11734310_a_at) / RFU VPS37D (11726825_at) / Fold change /veh VPS37D (11726825_at) / RFU C10orf10 (11716522_x_at) / Fold change /veh C10orf10 (11716522_x_at) / RFU KIR2DL2 /// KIR2DL4 /// KIR2DL5A /// KIR2DL5B /// KIR2DS1 /// KIR2DS2 /// KIR2DS3 /// KIR2DS4 /// KIR3DL3 /// KIR3DL3 /// KIR3DS1 (11738374_at) / Fold change /veh KIR2DL2 /// KIR2DL4 /// KIR2DL5A /// KIR2DL5B /// KIR2DS1 /// KIR2DS2 /// KIR2DS3 /// KIR2DS4 /// KIR3DL3 /// KIR3DL3 /// KIR3DS1 (11738374_at) / RFU C1QL1 (11718748_at) / Fold change /veh C1QL1 (11718748_at) / RFU TMPRSS4 (11747572_a_at) / Fold change /veh TMPRSS4 (11747572_a_at) / RFU HAMP (11756126_x_at) / Fold change /veh HAMP (11756126_x_at) / RFU RNFT2 (11725882_a_at) / Fold change /veh RNFT2 (11725882_a_at) / RFU NR4A2 (11747474_a_at) / Fold change /veh NR4A2 (11747474_a_at) / RFU ABCC12 (11746883_a_at) / Fold change /veh ABCC12 (11746883_a_at) / RFU TMEM136 (11760407_x_at) / Fold change /veh TMEM136 (11760407_x_at) / RFU CLDN22 /// WWC2 (11732394_at) / Fold change /veh CLDN22 /// WWC2 (11732394_at) / RFU HLA-DPB1 (11760878_x_at) / Fold change /veh HLA-DPB1 (11760878_x_at) / RFU SPINT1 (11716480_a_at) / Fold change /veh SPINT1 (11716480_a_at) / RFU GAP43 (11754022_s_at) / Fold change /veh GAP43 (11754022_s_at) / RFU A4GNT (11735810_at) / Fold change /veh A4GNT (11735810_at) / RFU PRB3 (11715151_x_at) / Fold change /veh PRB3 (11715151_x_at) / RFU TUBB4B (11761932_at) / Fold change /veh TUBB4B (11761932_at) / RFU CAPN14 (11732068_a_at) / Fold change /veh CAPN14 (11732068_a_at) / RFU TMCC2 (11721928_a_at) / Fold change /veh TMCC2 (11721928_a_at) / RFU IRGQ (11745062_a_at) / Fold change /veh IRGQ (11745062_a_at) / RFU FAM174B (11720279_a_at) / Fold change /veh FAM174B (11720279_a_at) / RFU TMPRSS4 (11748680_a_at) / Fold change /veh TMPRSS4 (11748680_a_at) / RFU FAM212B (11763350_a_at) / Fold change /veh FAM212B (11763350_a_at) / RFU PLEKHG5 (11743358_a_at) / Fold change /veh PLEKHG5 (11743358_a_at) / RFU ZSCAN30 (11745921_a_at) / Fold change /veh ZSCAN30 (11745921_a_at) / RFU CMKLR1 (11741424_a_at) / Fold change /veh CMKLR1 (11741424_a_at) / RFU LOC101060620 /// MAPK8IP1 (11723275_at) / Fold change /veh LOC101060620 /// MAPK8IP1 (11723275_at) / RFU SPTSSB (11747773_x_at) / Fold change /veh SPTSSB (11747773_x_at) / RFU PRSS12 (11739890_at) / Fold change /veh PRSS12 (11739890_at) / RFU BIN1 (11741810_x_at) / Fold change /veh BIN1 (11741810_x_at) / RFU WNT11 (11732464_a_at) / Fold change /veh WNT11 (11732464_a_at) / RFU C10orf10 (11716521_a_at) / Fold change /veh C10orf10 (11716521_a_at) / RFU C5orf56 (11738089_at) / Fold change /veh C5orf56 (11738089_at) / RFU CYB561 (11721691_x_at) / Fold change /veh CYB561 (11721691_x_at) / RFU ANKRD19P (11752326_a_at) / Fold change /veh ANKRD19P (11752326_a_at) / RFU OR2T12 /// OR2T33 /// OR2T8 (11738714_s_at) / Fold change /veh OR2T12 /// OR2T33 /// OR2T8 (11738714_s_at) / RFU VCAN (11748164_a_at) / Fold change /veh VCAN (11748164_a_at) / RFU JSRP1 (11732532_at) / Fold change /veh JSRP1 (11732532_at) / RFU KRTAP10-11 (11738290_x_at) / Fold change /veh KRTAP10-11 (11738290_x_at) / RFU MYO3A (11730013_a_at) / Fold change /veh MYO3A (11730013_a_at) / RFU EBF3 (11725865_a_at) / Fold change /veh EBF3 (11725865_a_at) / RFU CAMK2N1 (11719241_x_at) / Fold change /veh CAMK2N1 (11719241_x_at) / RFU C5orf56 (11738088_a_at) / Fold change /veh C5orf56 (11738088_a_at) / RFU OLFML3 (11715873_a_at) / Fold change /veh OLFML3 (11715873_a_at) / RFU LOC100653217 /// NTM (11731650_a_at) / Fold change /veh LOC100653217 /// NTM (11731650_a_at) / RFU MAPK11 (11762145_a_at) / Fold change /veh MAPK11 (11762145_a_at) / RFU FIZ1 (11724087_x_at) / Fold change /veh FIZ1 (11724087_x_at) / RFU OASL (11726364_x_at) / Fold change /veh OASL (11726364_x_at) / RFU SOX15 (11748057_x_at) / Fold change /veh SOX15 (11748057_x_at) / RFU CD79A (11719716_a_at) / Fold change /veh CD79A (11719716_a_at) / RFU HIST1H1D (11736915_at) / Fold change /veh HIST1H1D (11736915_at) / RFU CASKIN2 (11723855_a_at) / Fold change /veh CASKIN2 (11723855_a_at) / RFU LOC730098 (11760151_x_at) / Fold change /veh LOC730098 (11760151_x_at) / RFU OR4N2 (11742367_at) / Fold change /veh OR4N2 (11742367_at) / RFU PRRT2 (11749266_a_at) / Fold change /veh PRRT2 (11749266_a_at) / RFU SNX32 (11753110_a_at) / Fold change /veh SNX32 (11753110_a_at) / RFU CDHR5 (11726645_a_at) / Fold change /veh CDHR5 (11726645_a_at) / RFU RCAN1 (11760418_a_at) / Fold change /veh RCAN1 (11760418_a_at) / RFU FAM167A (11723789_a_at) / Fold change /veh FAM167A (11723789_a_at) / RFU FAM26E (11764081_at) / Fold change /veh FAM26E (11764081_at) / RFU ISYNA1 (11749810_s_at) / Fold change /veh ISYNA1 (11749810_s_at) / RFU ACY1 (11761880_at) / Fold change /veh ACY1 (11761880_at) / RFU 11764098_at / Fold change /veh 11764098_at / RFU SAMD14 (11745864_x_at) / Fold change /veh SAMD14 (11745864_x_at) / RFU NPB (11741838_a_at) / Fold change /veh NPB (11741838_a_at) / RFU TMPRSS6 (11731388_a_at) / Fold change /veh TMPRSS6 (11731388_a_at) / RFU KRTAP10-2 (11738614_at) / Fold change /veh KRTAP10-2 (11738614_at) / RFU ARHGAP8 /// PRR5-ARHGAP8 (11727945_x_at) / Fold change /veh ARHGAP8 /// PRR5-ARHGAP8 (11727945_x_at) / RFU KRTAP5-7 /// NADSYN1 (11734609_at) / Fold change /veh KRTAP5-7 /// NADSYN1 (11734609_at) / RFU RASL12 (11751679_a_at) / Fold change /veh RASL12 (11751679_a_at) / RFU CDKN2B (11736163_a_at) / Fold change /veh CDKN2B (11736163_a_at) / RFU PRF1 (11729649_at) / Fold change /veh PRF1 (11729649_at) / RFU, ZNF638 /// ZNF638-IT1 / Fold change vs veh, ZNF638 /// ZNF638-IT1 / RFU, PANK3 / Fold change vs veh, PANK3 / RFU, SH3YL1 / Fold change vs veh, SH3YL1 / RFU, ZEB2 / Fold change vs veh, ZEB2 / RFU, NRIP1 / Fold change vs veh, NRIP1 / RFU, PTTG1IP / Fold change vs veh, PTTG1IP / RFU, CAPN2 / Fold change vs veh, CAPN2 / RFU, MED14 / Fold change vs veh, MED14 / RFU, SNORA58 / Fold change vs veh, SNORA58 / RFU, C1orf63 / Fold change vs veh, C1orf63 / RFU, LRRFIP1 / Fold change vs veh, LRRFIP1 / RFU, NDUFAF7 / Fold change vs veh, NDUFAF7 / RFU, SLC12A2 / Fold change vs veh, SLC12A2 / RFU, IBTK / Fold change vs veh, IBTK / RFU, ESF1 / Fold change vs veh, ESF1 / Fold change vs veh, TMEM50B / RFU, TAOK1 / Fold change vs veh, TAOK1 / RFU, ACBD3 / Fold change vs veh, ACBD3 / RFU, TMA16 / Fold change vs veh, TMA16 / RFU, RWDD3 / Fold change vs veh, RWDD3 / RFU, BCAT1 / Fold change vs veh, BCAT1 / RFU, EDEM3 / Fold change vs veh, EDEM3 / RFU, TMEM33 / Fold change vs veh, TMEM33 / RFU, WDR75 / Fold change vs veh, WDR75 / RFU, AHCTF1 / Fold change vs veh, AHCTF1 / RFU, TFRC / Fold change vs veh, TFRC / RFU, ZDHHC17 / Fold change vs veh, ZDHHC17 / RFU, NOM1 / Fold change vs veh, NOM1 / RFU, ARL8B / Fold change vs veh, ARL8B / RFU, ZBTB11 / Fold change vs veh, ZBTB11 / RFU, TAMM41 / Fold change vs veh, TAMM41 / RFU, KIAA1704 /// LOC100996395 / Fold change vs veh, KIAA1704 /// LOC100996395 / RFU, ING1 / Fold change vs veh, ING1 / RFU, TRMT61B / Fold change vs veh, TRMT61B / RFU, FUBP3 / Fold change vs veh, FUBP3 / RFU, TP53 / Fold change vs veh, TP53 / RFU, TNKS2 / Fold change vs veh, TNKS2 / RFU, ZFP14 / Fold change vs veh, ZFP14 / RFU, ACTR2 / Fold change vs veh, ACTR2 / RFU, PPP3R1 / Fold change vs veh, PPP3R1 / RFU, PIK3R1 / Fold change vs veh, PIK3R1 / RFU, HNRNPA1 / Fold change vs veh, HNRNPA1 / RFU, RNF170 / Fold change vs veh, RNF170 / RFU, ZNF28 / Fold change vs veh, ZNF28 / RFU, RNGTT / Fold change vs veh, RNGTT / RFU, OGT / Fold change vs veh, OGT / RFU, BRD1 / Fold change vs veh, BRD1 / RFU, MARS / Fold change vs veh, MARS / RFU, ZNF655 / Fold change vs veh, ZNF655 / RFU, FAHD1 / Fold change vs veh, FAHD1 / RFU, BDP1 / Fold change vs veh, BDP1 / RFU, LRRCC1 / Fold change vs veh, LRRCC1 / RFU, ARID1A / Fold change vs veh, ARID1A / RFU, ZNF146 / Fold change vs veh, ZNF146 / RFU, ZNF330 / Fold change vs veh, ZNF330 / RFU, GPN3 / Fold change vs veh, GPN3 / RFU, C9orf123 / Fold change vs veh, C9orf123 / RFU, N4BP2L2 / Fold change vs veh, N4BP2L2 / RFU, ARFIP1 / Fold change vs veh, ARFIP1 / RFU, FAM179B / Fold change vs veh, FAM179B / RFU, BCL10 / Fold change vs veh, BCL10 / RFU, UHRF1BP1L / Fold change vs veh, UHRF1BP1L / RFU, BET1 / Fold change vs veh, BET1 / RFU, CNOT2 / Fold change vs veh, CNOT2 / RFU, ZNF268 / Fold change vs veh, ZNF268 / Fold change vs veh, ZNF507 / RFU, DGCR2 / Fold change vs veh, DGCR2 / RFU, WDSUB1 / Fold change vs veh, WDSUB1 / Fold change vs veh, HSP90B1 /// MIR3652 / RFU, ADSS / Fold change vs veh, ADSS / RFU, GK / Fold change vs veh, GK / RFU, ZNF148 / Fold change vs veh, ZNF148 / RFU, TAF9 / Fold change vs veh, TAF9 / RFU, SLC1A5 / Fold change vs veh, SLC1A5 / RFU, SLMO2 / Fold change vs veh, SLMO2 / RFU, ABCC4 / Fold change vs veh, ABCC4 / RFU, LOC101060439 /// RAP1B / Fold change vs veh, LOC101060439 /// RAP1B / RFU, RFX7 / Fold change vs veh, RFX7 / RFU, GTPBP10 / Fold change vs veh, GTPBP10 / RFU, CNEP1R1 / Fold change vs veh, CNEP1R1 / RFU, BIVM-ERCC5 /// ERCC5 / Fold change vs veh, BIVM-ERCC5 /// ERCC5 / RFU, ILF3 / Fold change vs veh, ILF3 / RFU 11762660_at / Fold change /veh 11762660_at / RFU VCAN (11757783_s_at) / Fold change /veh VCAN (11757783_s_at) / RFU DDX43 (11728927_at) / Fold change /veh DDX43 (11728927_at) / RFU KRT8 (11758188_x_at) / Fold change /veh KRT8 (11758188_x_at) / RFU NKD1 (11759106_at) / Fold change /veh NKD1 (11759106_at) / RFU SRD5A1 (11742802_a_at) / Fold change /veh SRD5A1 (11742802_a_at) / RFU TPSAB1 /// TPSB2 (11721975_s_at) / Fold change /veh TPSAB1 /// TPSB2 (11721975_s_at) / RFU GSTM3 (11746129_a_at) / Fold change /veh GSTM3 (11746129_a_at) / RFU IL23R (11737362_x_at) / Fold change /veh IL23R (11737362_x_at) / RFU TMEM51 (11727254_a_at) / Fold change /veh TMEM51 (11727254_a_at) / RFU PIWIL2 (11732686_x_at) / Fold change /veh PIWIL2 (11732686_x_at) / RFU ORM1 (11744905_x_at) / Fold change /veh ORM1 (11744905_x_at) / RFU CCDC152 (11743942_at) / Fold change /veh CCDC152 (11743942_at) / RFU ECM1 (11717891_a_at) / Fold change /veh ECM1 (11717891_a_at) / RFU IL23R (11748794_a_at) / Fold change /veh IL23R (11748794_a_at) / RFU TNFAIP8L3 (11732012_x_at) / Fold change /veh TNFAIP8L3 (11732012_x_at) / RFU MBOAT4 (11741988_at) / Fold change /veh MBOAT4 (11741988_at) / RFU 11764193_at / Fold change /veh 11764193_at / RFU TMEM53 (11763286_at) / Fold change /veh TMEM53 (11763286_at) / RFU MAGEB2 (11727129_at) / Fold change /veh MAGEB2 (11727129_at) / RFU TMEM200A (11744735_a_at) / Fold change /veh TMEM200A (11744735_a_at) / RFU CCDC152 (11751479_a_at) / Fold change /veh CCDC152 (11751479_a_at) / RFU FAM211A (11726209_a_at) / Fold change /veh FAM211A (11726209_a_at) / RFU RGS16 (11746705_a_at) / Fold change /veh RGS16 (11746705_a_at) / RFU VCAN (11755009_s_at) / Fold change /veh VCAN (11755009_s_at) / RFU RHOB (11743442_s_at) / Fold change /veh RHOB (11743442_s_at) / RFU RGS16 (11720943_a_at) / Fold change /veh RGS16 (11720943_a_at) / RFU RGS16 (11720944_at) / Fold change /veh RGS16 (11720944_at) / RFU, VPS4B / Fold change vs veh, VPS4B / RFU, CREB1 / Fold change vs veh, CREB1 / RFU, DNAJC13 / Fold change vs veh, DNAJC13 / RFU, GNAQ / Fold change vs veh, GNAQ / RFU, CDK5R1 / Fold change vs veh, CDK5R1 / RFU, ZRANB3 / Fold change vs veh, ZRANB3 / RFU, CUL4A / Fold change vs veh, CUL4A / RFU, CCNY / Fold change vs veh, CCNY / RFU, UFL1 / Fold change vs veh, UFL1 / RFU, COG3 / Fold change vs veh, COG3 / RFU, DIAPH2 / Fold change vs veh, DIAPH2 / RFU, SKA2 / Fold change vs veh, SKA2 / RFU, AFF3 / Fold change vs veh, AFF3 / RFU, LMF1 / Fold change vs veh, LMF1 / RFU, IPO11 / Fold change vs veh, IPO11 / RFU, DFFB / Fold change vs veh, DFFB / RFU, FOXP1 / Fold change vs veh, FOXP1 / RFU, CARD8 / Fold change vs veh, CARD8 / RFU, STRN3 / Fold change vs veh, STRN3 / RFU, ADK / Fold change vs veh, ADK / RFU, RASSF2 / Fold change vs veh, RASSF2 / RFU, WIPF1 / Fold change vs veh, WIPF1 / RFU, LARP1B / Fold change vs veh, LARP1B / RFU, RASA1 / Fold change vs veh, RASA1 / RFU, RB1 / Fold change vs veh, RB1 / RFU, PPFIA1 / Fold change vs veh, PPFIA1 / RFU, MAT2A / Fold change vs veh, MAT2A / RFU, CCT5 / Fold change vs veh, CCT5 / RFU, WDR92 / Fold change vs veh, WDR92 / RFU, CUX1 / Fold change vs veh, CUX1 / RFU, TTC7A / Fold change vs veh, TTC7A / RFU, TMEM135 / Fold change vs veh, TMEM135 / RFU, DEPTOR / Fold change vs veh, DEPTOR / RFU, CPM / Fold change vs veh, CPM / RFU, DNAJB6 / Fold change vs veh, DNAJB6 / RFU, CACNA2D3 / Fold change vs veh, CACNA2D3 / RFU, DTX4 / Fold change vs veh, DTX4 / RFU, TFCP2 / Fold change vs veh, TFCP2 / RFU, GMCL1 /// GMCL1P1 / Fold change vs veh, GMCL1 /// GMCL1P1 / RFU, AEBP2 / Fold change vs veh, AEBP2 / RFU, SNHG1 /// SNORD22 /// SNORD25 /// SNORD26 /// SNORD27 /// SNORD28 /// SNORD29 /// SNORD31 / Fold change vs veh, SNHG1 /// SNORD22 /// SNORD25 /// SNORD26 /// SNORD27 /// SNORD28 /// SNORD29 /// SNORD31 / Fold change (Aza/veh), C12orf56 (ProbeSet 11735607_a_at) / Fold change (ACY-1035/veh), C12orf56 (ProbeSet 11735607_a_at) / Fold change (Aza/veh), FGFR1OP (ProbeSet 11751329_s_at) / Fold change (ACY-1035/veh), FGFR1OP (ProbeSet 11751329_s_at) / Fold change (Aza/veh), VPS36 (ProbeSet 11739960_a_at) / Fold change (ACY-1035/veh), VPS36 (ProbeSet 11739960_a_at) / RFU SYPL1 (11715823_x_at) / Fold change /veh SYPL1 (11715823_x_at) / RFU IGFBP7 (11715501_s_at) / Fold change /veh IGFBP7 (11715501_s_at) / RFU REEP3 (11722064_at) / Fold change /veh REEP3 (11722064_at) / RFU IGLL1 (11728026_x_at) / Fold change /veh IGLL1 (11728026_x_at): dose or concentration left out as unconfirmed
Conditions: ProbeSet 11718701_a_at; LIST B

## Nc1ccc(-c2cccs2)cc1NC(=O)c1ccc2c(c1)cc(C1CC1)n2CCN1CCOCC1 [ACY-1035]
  RFU, ARFIP1: 56.28 RFU
